Results published in patent publication US11518760B2 (Liverpool School of Tropical Medicine, priority 2017, dated 2022).

test system: C6/36 Aedes albopictus cell line infected with Wolbachia pipientis (Wolbachia strain wAlbB); assay: In vitro insect cell line assay (anti-Wolbachia screen, SYTO 11 high content imaging); assay type: cell-based; conditions: 168 h; C6/36 Aedes albopictus cells infected with Wolbachia pipientis wAlbB, 7 days incubation, SYTO 11 imaging; read-out: In vitro anti-Wolbachia activity
Experimental: A C6/36 Aedes albopictus cell line infected with Wolbachia pipientis (Wolbachia strain wAlbB) derived from Aa23 A. albopictus cell line (O'Neill et al., 1997; Insect Mol Biol; Turner et al., (2006) J. Immunol. 7:1240-1249) was used to screen compounds. Cells were cultured in Leibovitz's L15+L-glutamine supplemented with heat-inactivated Foetal Calf Serum (HI-FCS), non-essential amino acids and tryptose phosphate broth. Culture medium was filter-sterilized through a 0.2 μm filter and stored at 4° C. Compounds were provided as 10 mM stocks in DMSO, diluted to 50 μM working stock to give final concentration of 5 μM on the test plate. Concentrated stocks were frozen at −20° C.
Prior to use in the screening assay, cell cultures were sub-passaged (6 days prior) to provide ˜90% confluent cells on Day 0 of screening assay. On Day 0 (assay set-up), the medium was removed from the stock culture flask and replaced with fresh medium. The cells were detached by scraping and cell density was calculated using an automated cell counter. The cells were then diluted at working density and aliquoted at 90 μl to each well of a Cell Carrier 384 well plate (Perkin Elmer). Cell plates were incubated at 26° C.
Control solution (DMSO-medium) was dispensed at 10 μl per well for “untreated” wells. Test solution (Drug-DMSO) was also dispensed at 10 μl (from working plate) per well for “treated” wells. The plates were incubated at 26° C., inside plastic wallet in incubator, for 7 days.
On Day 7, 25 μl of staining medium/dye (SYTO 11, Life Technologies) was added to each sample well and allowed to stain for 15 minutes in the dark. All the medium was removed from each sample well without disturbing the cells and replaced with 100 μl of fresh medium. Plates were imaged on the Operetta High Content Imaging system (Perkin Elmer) and analyzed using texture analysis through Harmony software (Perkin Elmer). The cell-based screen and analysis are described in detail in Clare et al. (2014) J Biomol Screen.

Row | Compound | EC50 [nM]
1 | FC(F)(F)c1ncccc1CNc1nc(N2CCC(C(F)(F)F)C2)nc2ncccc12 (stereo not drawn) [Example 236, N-((2-(trifluoromethyl)pyridin-3-yl)methyl)-2-(3-(trifluoromethyl)pyrrolidin-1-yl)pyrido[2,3-d]pyrimidin-4-amine] | < 0.01
2 | Cc1nc(N(C)Cc2ccccc2C(F)(F)F)c2sccc2n1 [Example 63, N,2-dimethyl-N-(2-(trifluoromethyl)benzyl)thieno[3,2-d]pyrimidin-4-amine] | 10 to 100
3 | C[C@H]1COCCN1c1nc(N2CCC2c2ccccc2C(F)(F)F)c2cccnc2n1 (stereo partly drawn) [Example 291, (3S)-3-methyl-4-(4-(2-(2-(trifluoromethyl)phenyl)azetidin-1-yl)pyrido[2,3-d]pyrimidin-2-yl)morpholine] | 0.01 to 1
4 | C[C@@H]1CO[C@@H](C)CN1c1nc(NCc2cccnc2C(F)(F)F)c2cccnc2n1 [Example 271, 2-((2S,5R)-2,5-dimethylmorpholino)-N-((2-(trifluoromethyl)pyridin-3-yl)methyl)pyrido[2,3-d]pyrimidin-4-amine] | 0.01 to 1
5 | CC1COCCN1c1nc(NCc2cccnc2C(F)(F)F)c2cccnc2n1 (stereo not drawn) [Example 193, 2-(3-methylmorpholino)-N-((2-(trifluoromethyl)pyridin-3-yl)methyl)pyrido[2,3-d]pyrimidin-4-amine] | 1 to 10
6 | CC(Nc1ncnc2cc(-c3ccccc3)sc12)c1ccccc1C(F)(F)F (stereo not drawn) [Example 98, 6-phenyl-N-(1-(2-(trifluoromethyl)phenyl)ethyl)thieno[3,2-d]pyrimidin-4-amine] | 1000 to 100000
7 | CC(C)Sc1nc(NCc2cccnc2C(F)(F)F)c2cccnc2n1 [Example 164, 2-(isopropylthio)-N-((2-(trifluoromethyl)pyridin-3-yl)methyl)pyrido[2,3-d]pyrimidin-4-amine] | 1 to 10
8 | FC(F)OC1CCCN(c2nc(NCc3cccnc3C(F)(F)F)c3cccnc3n2)C1 (stereo not drawn) [Example 292, 2-(3-(difluoromethoxy)piperidin-1-yl)-N-((2-(trifluoromethyl)pyridin-3-yl)methyl)pyrido[2,3-d]pyrimidin-4-amine] | < 0.01
9 | Fc1ccc(CNc2ncnc3ccsc23)c(C(F)(F)F)c1 [Example 60, N-(4-fluoro-2-(trifluoromethyl)benzyl)thieno[3,2-d]pyrimidin-4-amine] | 10 to 100
10 | FC(F)(F)c1ccccc1CNc1nc(CN2CC(C(F)(F)F)C2)nc2ncccc12 [Example 226] | 100 to 1000
11 | CN(Cc1ccccc1C(F)(F)F)c1ncnc2ccsc12 [Example 44, N-methyl-N-(2-(trifluoromethyl)benzyl)thieno[3,2-d]pyrimidin-4-amine] | 10 to 100
12 | CCN(Cc1ccccc1C(F)(F)F)c1ncnc2ccsc12 [Example 54, N-ethyl-N-(2-(trifluoromethyl)benzyl)thieno[3,2-d]pyrimidin-4-amine] | 1 to 10
13 | FC(F)(F)c1ncccc1CNc1nc(N2CCCC23CCC3)nc2ncccc12 [Example 298] | < 0.01
14 | CC1COCCN1c1nc(NCc2ccccc2C(F)(F)F)c2nccnc2n1 (stereo not drawn) [Example 310, 2-(3-methylmorpholino)-N-(2-(trifluoromethyl)benzyl)pteridin-4-amine] | 100 to 1000
15 | CC1(C)CN(c2nc(NCc3ccccc3C(F)(F)F)c3cccnc3n2)CCO1 [Example 247, 2-(2,2-dimethylmorpholino)-N-(2-(trifluoromethyl)benzyl)pyrido[2,3-d]pyrimidin-4-amine] | < 0.01
16 | CC(C)Nc1nc(NCc2ccccc2C(F)(F)F)c2sccc2n1 [Example 28, N^2-isopropyl-N^4-(2-(trifluoromethyl)benzyl)thieno[3,2-d]pyrimidine-2,4-diamine] | 10 to 100
17 | CC(C)C1COCCN1c1nc(NCc2cccnc2C(F)(F)F)c2cccnc2n1 (stereo not drawn) [Example 269, 2-(3-isopropylmorpholino)-N-((2-(trifluoromethyl)pyridin-3-yl)methyl)pyrido[2,3-d]pyrimidin-4-amine] | 1 to 10
18 | FC(F)(F)c1ncccc1CNc1nc(N2CCCCC23CC3)nc2ncccc12 [Example 296, 2-(4-azaspiro[2.5]octan-4-yl)-N-((2-(trifluoromethyl)pyridin-3-yl)methyl)pyrido[2,3-d]pyrimidin-4-amine] | < 0.01
19 | C[C@@H]1COCCN1c1nc(NCc2ccccc2C(F)(F)F)c2cccnc2n1 [Example 209, (R)-2-(3-methylmorpholino)-N-(2-(trifluoromethyl)benzyl)pyrido[2,3-d]pyrimidin-4-amine] | 10 to 100

Row | Compound | EC50 [nM]
20 | CC(C)(C)Nc1nc(NCc2ccccc2C(F)(F)F)c2sccc2n1 [Example 41, N^2-(tert-butyl)-N^4-(2-(trifluoromethyl)benzyl)thieno[3,2-d]pyrimidine-2,4-diamine] | 10 to 100
21 | Cc1nc(N(C)C(C)c2ccccc2C(F)(F)F)c2sc(C3(O)COC3)cc2n1 (stereo not drawn) [Example 76] | 1000 to 100000
22 | C[C@H]1COCCN1c1nc(N2CCC2c2cccnc2C(F)(F)F)c2cccnc2n1 (stereo partly drawn) [Example 289, (3S)-3-methyl-4-(4-(2-(2-(trifluoromethyl)pyridin-3-yl)azetidin-1-yl)pyrido[2,3-d]pyrimidin-2-yl)morpholine] | 0.01 to 1
23 | CC1(C)CCN1c1nc(NCc2cccnc2C(F)(F)F)c2cccnc2n1 [Example 173, 2-(2,2-dimethylazetidin-1-yl)-N-((2-(trifluoromethyl)pyridin-3-yl)methyl)pyrido[2,3-d]pyrimidin-4-amine] | 1 to 10
24 | CC(C)Nc1nc(NCc2ccc(C(F)(F)F)nc2)c2ccccc2n1 [Example 114, N^2-isopropyl-N^4-((6-(trifluoromethyl)pyridin-3-yl)methyl)quinazoline-2,4-diamine] | 100 to 1000
25 | CC(C)[S+]([O-])c1nc(NCc2cccnc2C(F)(F)F)c2cccnc2n1 (stereo not drawn) [Example 178, 2-(isopropylsulfinyl)-N-((2-(trifluoromethyl)pyridin-3-yl)methyl)pyrido[2,3-d]pyrimidin-4-amine] | 1000 to 100000
26 | CC1(C)COCCN1c1nc(NCc2ccccc2C(F)(F)F)c2cccnc2n1 [Example 246, 2-(3,3-dimethylmorpholino)-N-(2-(trifluoromethyl)benzyl)pyrido[2,3-d]pyrimidin-4-amine] | 100 to 1000
27 | CN1CC(Nc2nc(NCc3ccccc3C(F)(F)F)c3cccnc3n2)C1 [Example 142, N^2-(1-methylazetidin-3-yl)-N^4-(2-(trifluoromethyl)benzyl)pyrido[2,3-d]pyrimidine-2,4-diamine] | 1000 to 100000
28 | CC(Nc1ncnc2cc(Cl)sc12)c1ccccc1C(F)(F)F (stereo not drawn) [Example 101] | 1000 to 100000
29 | CC(C)Nc1nc(N(C)Cc2cccnc2C(F)(F)F)c2cccnc2n1 [Example 160, N^2-isopropyl-N^4-methyl-N4-((2-(trifluoromethyl)pyridin-3-yl)methyl)pyrido[2,3-d]pyrimidine-2,4-diamine] | 10 to 100
30 | FC1(F)CCN(c2nc(N3CCC3c3cccnc3C(F)(F)F)c3cccnc3n2)CC1 (stereo not drawn) [Example 218, 2-(4,4-difluoropiperidin-1-yl)-4-(2-(2-(trifluoromethyl)pyridin-3-yl)azetidin-1-yl)pyrido[2,3-d]pyrimidine] | 0.01 to 1
31 | CC(C)Nc1nc(NCc2ccccc2)c2sccc2n1 [Example 12, N^4-benzyl-N^2-isopropylthieno[3,2-d]pyrimidine-2,4-diamine] | 1000 to 100000
32 | CC1(C)CN(c2nc(NCc3cccnc3C(F)(F)F)c3cccnc3n2)CCO1 [Example 239, 2-(2,2-dimethylmorpholino)-N-((2-(trifluororoethyl)pyridin-3-yl)methyl)pyrido[2,3-d]pyrimidin-4-amine] | 0.01 to 1
33 | FC(F)(F)c1ccc(CNc2nc(Cl)nc3ccccc23)cn1 [Example 115] | 1000 to 100000
34 | FC(F)(F)c1ccncc1CNc1ncnc2ccsc12 [Example 82] | 1000 to 100000
35 | Cc1nc(NCc2cccnc2C(F)(F)F)c2cccnc2n1 [Example 177, 2-methyl-N-((2-(trifluoromethyl)pyridin-3-yl)methyl)pyrido[2,3-d]pyrimidin-4-amine] | 1000 to 100000
36 | CC(C)Nc1nc(NCc2ccccc2F)c2sccc2n1 [Example 11] | 100 to 1000
37 | Cc1nc(NCc2ccccc2C(F)(F)F)c2sccc2n1 [Example 55, 2-methyl-N-(2-(trifluoromethyl)benzyl)thieno[3,2-d]pyrimidin-4-amine] | 10 to 100
38 | C[C@@H]1[C@@H](C)OCCN1c1nc(NCc2cccnc2C(F)(F)F)c2cccnc2n1 [Example 270, 2-((2R,3R)-2,3-dimethylmorpholino)-N-((2-(trifluoromethyl)pyridin-3-yl)methyl)pyrido[2,3-d]pyrimidin-4-amine] | 1 to 10

same assay, conditions: C6/36 Aedes albopictus cells infected with Wolbachia pipientis wAlbB, 7 days incubation, SYTO 11 imaging; read-out: In vitro anti-Wolbachia activity

Row | Compound | EC50 [nM]
39 | 2-((3,3-difluoropyrrolidin-1-yl)methyl)-N-((2-(trifluoromethyl)pyridin-3-yl)methyl)pyrido[2,3-d]pyrimidin-4-amine [Example 225] | 1000 to 100000
